# Results reported in ChEMBL document CHEMBL1201862, “PubChem BioAssay data set” (2004).
#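 48-hour exposure; five concentrations; linearly interpolated endpoints. At the GI50, growth is halved.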 Calls of active or inactive are those of the source. Rule as the data show it: active = GI50 up to about 1.1 µM and inactive = higher.
# Tests used:
# Assay in all cases: NCI-60 cell line screen, 48 h
# SK-MEL-28 = tested on: SK-MEL-28
# IGROV-1 = tested on: IGROV-1
# NCI-H460 = tested on: NCI-H460
# NCI/ADR-RES = tested on: NCI/ADR-RES
# MCF7 = tested on: MCF7
# A549 = tested on: A549
# Malme-3M = tested on: Malme-3M
# M14 = tested on: M14
# HL-60 = tested on: HL-60
# OVCAR-8 = tested on: OVCAR-8
# ACHN = tested on: ACHN
# OVCAR-4 = tested on: OVCAR-4
# MOLT-4 = tested on: MOLT-4
# HCC 2998 = tested on: HCC 2998
# TK-10 = tested on: TK-10
# LOX IMVI = tested on: LOX IMVI
# SF-295 = tested on: SF-295
# MDA-MB-231 = tested on: MDA-MB-231
# RXF 393 = tested on: RXF 393
# MDA-MB-435 = tested on: MDA-MB-435
# UACC-62 = tested on: UACC-62
# T47D = tested on: T47D
# DU-145 = tested on: DU-145
# 786-0 = tested on: 786-0
# BT-549 = tested on: BT-549
# SF-539 = tested on: SF-539
# CAKI-1 = tested on: CAKI-1
# MDA-N = tested on: MDA-N
# OVCAR-3 = tested on: OVCAR-3
# OVCAR-5 = tested on: OVCAR-5
# NCI-H23 = tested on: NCI-H23
# COLO 205 = tested on: COLO 205
# KM12 = tested on: KM12
# NCI-H226 = tested on: NCI-H226
# EKVX = tested on: EKVX
# RPMI-8226 = tested on: RPMI-8226
# SF-268 = tested on: SF-268
# SW-620 = tested on: SW-620
# Hs-578T = tested on: Hs-578T
# HCT-116 = tested on: HCT-116
# HOP-62 = tested on: HOP-62
# SK-OV-3 = tested on: SK-OV-3
# HCT-15 = tested on: HCT-15
# UO-31 = tested on: UO-31
# PC-3 = tested on: PC-3
# U-251 = tested on: U-251
# SK-MEL-5 = tested on: SK-MEL-5
# SN12C = tested on: SN12C
# NCI-H522 = tested on: NCI-H522
# SNB-75 = tested on: SNB-75
# CCRF-CEM = tested on: CCRF-CEM
# SNB-19 = tested on: SNB-19
# UACC-257 = tested on: UACC-257
# HT-29 = tested on: HT-29
# K562 = tested on: K562
# SK-MEL-2 = tested on: SK-MEL-2
# SR = tested on: SR
# HOP-92 = tested on: HOP-92
# A498 = tested on: A498
smiles,measurement,setting,value
CC1=C(/C=C/C(C)=C/C=C/C(C)=C/C(=O)OC2CC(n3cc(F)c(=O)[nH]c3=O)OC2CO)C(C)(C)CCC1 (stereo unspecified),GI50,SK-MEL-28,7.73 µM (inactive)
same,GI50,IGROV-1,7.13 µM (inactive)
same,GI50,NCI-H460,0.0429 µM (active)
same,GI50,NCI/ADR-RES,2.05 µM (inactive)
same,GI50,MCF7,0.057 µM (active)
same,GI50,A549,0.153 µM (active)
same,GI50,Malme-3M,12.1 µM (inactive)
same,GI50,M14,1.35 µM (inactive)
same,GI50,HL-60,0.628 µM (active)
same,GI50,OVCAR-8,0.526 µM (active)
same,GI50,ACHN,0.082 µM (active)
same,GI50,OVCAR-4,6.01 µM (inactive)
same,GI50,MOLT-4,0.2 µM (active)
same,GI50,HCC 2998,1.97 µM (inactive)
same,GI50,TK-10,11.5 µM (inactive)
same,GI50,LOX IMVI,2.15 µM (inactive)
same,GI50,SF-295,0.148 µM (active)
same,GI50,MDA-MB-231,9.73 µM (inactive)
same,GI50,RXF 393,6.3 µM (inactive)
same,GI50,MDA-MB-435,3.97 µM (inactive)
same,GI50,UACC-62,0.184 µM (active)
same,GI50,T47D,4.17 µM (inactive)
same,GI50,DU-145,0.476 µM (active)
same,GI50,786-0,0.52 µM (active)
same,GI50,BT-549,1.58 µM (inactive)
same,GI50,SF-539,0.0577 µM (active)
same,GI50,CAKI-1,0.383 µM (active)
same,GI50,MDA-N,6.82 µM (inactive)
same,GI50,OVCAR-3,4.72 µM (inactive)
same,GI50,OVCAR-5,17.3 µM (inactive)
same,GI50,NCI-H23,2.75 µM (inactive)
same,GI50,COLO 205,6.93 µM (inactive)
same,GI50,KM12,12.2 µM (inactive)
same,GI50,NCI-H226,25.4 µM (inactive)
same,GI50,EKVX,13.9 µM (inactive)
same,GI50,RPMI-8226,0.254 µM (active)
same,GI50,SF-268,0.252 µM (active)
same,GI50,SW-620,10.6 µM (inactive)
same,GI50,Hs-578T,6.62 µM (inactive)
same,GI50,HCT-116,0.748 µM (active)
same,GI50,HOP-62,0.158 µM (active)
same,GI50,SK-OV-3,2.05 µM (inactive)
same,GI50,HCT-15,4.35 µM
same,GI50,UO-31,0.431 µM (active)
same,GI50,PC-3,1.99 µM (inactive)
same,GI50,U-251,1.2 µM (inactive)
same,GI50,SK-MEL-5,1.18 µM (inactive)
same,GI50,SN12C,4.5 µM (inactive)
same,GI50,NCI-H522,1.17 µM (inactive)
same,GI50,SNB-75,1.07 µM (active)
same,GI50,CCRF-CEM,0.374 µM (active)
same,GI50,SNB-19,3.34 µM (inactive)
same,GI50,UACC-257,7.91 µM (inactive)
same,GI50,HT-29,2.71 µM (inactive)
same,GI50,K562,1.63 µM (inactive)
same,GI50,SK-MEL-2,24.9 µM (inactive)
same,GI50,SR,0.247 µM (active)
same,GI50,HOP-92,11.3 µM (inactive)
N=C(N)NS(=O)(=O)c1ccc(NC(=O)c2ccc3nc4ccccc4c(O)c3c2)cc1,GI50,SK-MEL-28,> 100 µM (inactive)
same,GI50,IGROV-1,> 100 µM (inactive)
same,GI50,NCI-H460,> 100 µM (inactive)
same,GI50,NCI/ADR-RES,> 100 µM (inactive)
same,GI50,MCF7,> 100 µM (inactive)
same,GI50,A549,> 100 µM (inactive)
same,GI50,Malme-3M,> 100 µM (inactive)
same,GI50,M14,> 100 µM (inactive)
same,GI50,HL-60,> 100 µM (inactive)
same,GI50,OVCAR-8,> 100 µM (inactive)
same,GI50,ACHN,> 100 µM (inactive)
same,GI50,OVCAR-4,> 100 µM (inactive)
same,GI50,MOLT-4,> 100 µM (inactive)
same,GI50,HCC 2998,> 100 µM (inactive)
same,GI50,TK-10,> 100 µM (inactive)
same,GI50,LOX IMVI,49.7 µM (inactive)
same,GI50,SF-295,> 100 µM (inactive)
same,GI50,MDA-MB-231,> 100 µM (inactive)
same,GI50,RXF 393,> 100 µM (inactive)
same,GI50,MDA-MB-435,> 100 µM (inactive)
same,GI50,UACC-62,> 100 µM (inactive)
same,GI50,T47D,> 100 µM (inactive)
same,GI50,DU-145,> 100 µM (inactive)
same,GI50,786-0,> 100 µM (inactive)
same,GI50,BT-549,> 100 µM (inactive)
same,GI50,SF-539,> 100 µM (inactive)
same,GI50,CAKI-1,> 100 µM (inactive)
same,GI50,MDA-N,> 100 µM (inactive)
same,GI50,OVCAR-3,> 100 µM (inactive)
same,GI50,OVCAR-5,> 100 µM (inactive)
same,GI50,NCI-H23,> 100 µM (inactive)
same,GI50,COLO 205,> 100 µM (inactive)
same,GI50,KM12,> 100 µM (inactive)
same,GI50,NCI-H226,> 100 µM (inactive)
same,GI50,EKVX,> 100 µM (inactive)
same,GI50,RPMI-8226,> 100 µM (inactive)
same,GI50,SF-268,> 100 µM (inactive)
same,GI50,SW-620,> 100 µM (inactive)
same,GI50,Hs-578T,> 100 µM (inactive)
same,GI50,HCT-116,> 100 µM (inactive)
same,GI50,HOP-62,> 100 µM (inactive)
same,GI50,SK-OV-3,> 100 µM (inactive)
same,GI50,HCT-15,> 100 µM
same,GI50,UO-31,> 100 µM (inactive)
same,GI50,PC-3,> 100 µM (inactive)
same,GI50,U-251,> 100 µM (inactive)
same,GI50,SK-MEL-5,> 100 µM (inactive)
same,GI50,SN12C,> 100 µM (inactive)
same,GI50,NCI-H522,> 100 µM (inactive)
same,GI50,SNB-75,> 100 µM (inactive)
same,GI50,CCRF-CEM,> 100 µM (inactive)
same,GI50,SNB-19,> 100 µM (inactive)
same,GI50,UACC-257,> 100 µM (inactive)
same,GI50,HT-29,> 100 µM (inactive)
same,GI50,K562,> 100 µM (inactive)
same,GI50,SK-MEL-2,> 100 µM (inactive)
same,GI50,SR,> 100 µM (inactive)
same,GI50,HOP-92,> 100 µM (inactive)
O=c1[nH]c(=O)n(C2OC(CO)C(O)C2O)c2nc(-c3ccc(-c4ccccc4)cc3)cnc12 (stereo unspecified),GI50,IGROV-1,> 100 µM (inactive)
same,GI50,NCI-H460,> 100 µM (inactive)
same,GI50,NCI/ADR-RES,> 100 µM (inactive)
same,GI50,MCF7,> 100 µM (inactive)
same,GI50,A549,> 100 µM (inactive)
same,GI50,Malme-3M,> 100 µM (inactive)
same,GI50,M14,81.8 µM (inactive)
same,GI50,OVCAR-8,> 100 µM (inactive)
same,GI50,ACHN,> 100 µM (inactive)
same,GI50,OVCAR-4,> 100 µM (inactive)
same,GI50,MOLT-4,> 100 µM (inactive)
same,GI50,HCC 2998,> 100 µM (inactive)
same,GI50,TK-10,> 100 µM (inactive)
same,GI50,LOX IMVI,> 100 µM (inactive)
same,GI50,SF-295,> 100 µM (inactive)
same,GI50,MDA-MB-231,> 100 µM (inactive)
same,GI50,RXF 393,> 100 µM (inactive)
same,GI50,MDA-MB-435,> 100 µM (inactive)
same,GI50,UACC-62,> 100 µM (inactive)
same,GI50,T47D,> 100 µM (inactive)
same,GI50,DU-145,> 100 µM (inactive)
same,GI50,786-0,> 100 µM (inactive)
same,GI50,BT-549,> 100 µM (inactive)
same,GI50,SF-539,> 100 µM (inactive)
same,GI50,CAKI-1,> 100 µM (inactive)
same,GI50,MDA-N,> 100 µM (inactive)
same,GI50,OVCAR-5,> 100 µM (inactive)
same,GI50,NCI-H23,> 100 µM (inactive)
same,GI50,COLO 205,> 100 µM (inactive)
same,GI50,KM12,> 100 µM (inactive)
same,GI50,NCI-H226,> 100 µM (inactive)
same,GI50,EKVX,> 100 µM (inactive)
same,GI50,RPMI-8226,> 100 µM (inactive)
same,GI50,SF-268,> 100 µM (inactive)
same,GI50,SW-620,> 100 µM (inactive)
same,GI50,Hs-578T,> 100 µM (inactive)
same,GI50,HCT-116,> 100 µM (inactive)
same,GI50,HOP-62,> 100 µM (inactive)
same,GI50,SK-OV-3,> 100 µM (inactive)
same,GI50,HCT-15,> 100 µM
same,GI50,UO-31,> 100 µM (inactive)
same,GI50,PC-3,> 100 µM (inactive)
same,GI50,U-251,> 100 µM (inactive)
same,GI50,SK-MEL-5,40.6 µM (inactive)
same,GI50,SN12C,> 100 µM (inactive)
same,GI50,NCI-H522,> 100 µM (inactive)
same,GI50,SNB-75,> 100 µM (inactive)
same,GI50,CCRF-CEM,> 100 µM (inactive)
same,GI50,SNB-19,> 100 µM (inactive)
same,GI50,UACC-257,> 100 µM (inactive)
same,GI50,HT-29,> 100 µM (inactive)
same,GI50,K562,> 100 µM (inactive)
same,GI50,SK-MEL-2,> 100 µM (inactive)
same,GI50,A498,> 100 µM (inactive)
same,GI50,HOP-92,> 100 µM (inactive)
